{
  "source": "paper PMC9775177",
  "about": "“NLRP3-Inflammasome Inhibition with IZD334 Does Not Reduce Cardiac Damage in a Pig Model of Myocardial Infarction” (Biomedicines, 2022)",
  "key": {"[1]": {"system": "pig model of myocardial infarction", "test": "In vivo MI study: regional cardiac function and dobutamine echocardiography", "set-up": "species or system pigs", "details": "high-dose group (10 mg/kg), 7 days follow-up", "description": "(§1) Oral treatment was continued for six days. […] Animals were sacrificed by exsanguination under anesthesia.\nImages were made using a X7-2T transducer on an iE33 ultrasound device (Philips, Eindhoven, The Netherlands). The pig was placed in the right lateral position, and the echo probe was inserted 50–60 cm into the esophagus. We used the 3D full volume option and temporarily interrupted mechanical ventilation to assess LV geometry and function. On day 7 we additionally obtained dobutamine stress-echocardiography to assess regional cardiac function. Images were analyzed in a blinded fashion with validated software, QLab 10.7 (Philips, Eindhoven, The Netherlands)."}, "[2]": {"test": "Pharmacokinetics study in healthy pigs", "format": "in vivo", "description": "Healthy female pigs (n = 3) were given intravenous (IV) treatment with IZD334 (3 mg/kg) via a 30 min infusion, and blood was collected at multiple timepoints and analyzed to determine pharmacokinetics. After a wash-out period of 3 days, the pigs received an oral dose (10 mg/kg), and plasma was again collected and analyzed.\nIn vivo IZD334 concentrations were measured in plasma samples using mass-spectrometry. IZD334 content was quantified using positive ionization mode and multiple reaction monitoring on a Sciex API 5500 Mass spectrometer (MRM transition: 392.0 > 176.1).\nAt multiple time points (0.033, 0.083, 0.17, 0.25, 0.50, 1.0, 2.0, 3.0, 4.0, 6.0, 8.0, 12.0, 24.0 h) after dosing, plasma was collected by whole-blood centrifugation at 1850× g, and samples were immediately stored to determine pharmacokinetics. After a wash-out period of 3 days, the pigs received an oral dose (10 mg/kg), and plasma was collected again at multiple time points (0.25, 0.50, 0.75, 1.0, 2.0, 3.0, 4.0, 6.0, 8.0, 12.0, 24.0 h) for pharmacokinetic purposes. Samples were sent to Sygnature Discovery (Nottingham, United Kingdom) to determine circulating levels of IZD334.\nThe volume of distribution at steady state (Vdss) is defined as the total concentration of IZD334 in the entire body divided by IZD334 plasma concentration. Drug clearance (Cl) was calculated by dividing the total administered dose with the area under the curve. Maximal concentration (Cmax) was obtained by calculating the mean of the highest concentrations of the separate pigs. Bioavailability (F%) was calculated using the following equation: (100 ∗ ((area under the curve oral dose × IV dose)/(area under the curve IV dose × oral dose)))."}, "[3]": {"system": "pig model of myocardial infarction", "test": "In vivo MI study: infarct size by Evans Blue TTC double staining", "details": "10 mg/kg IV loading dose, 7 days after MI", "experimental": "All animal experiments and analyses were performed in a blinded, randomized fashion. Thirty female pigs were subjected to closed-chest LAD coronary artery balloon occlusion for 75 min followed by 7 days of reperfusion. […] The control (PBS) group received an oral placebo. Oral treatment was continued for six days. All pigs underwent transthoracic and three-dimensional transesophageal echocardiography before induction of ischemia and after 7 days. Furthermore, on day 7, cardiac magnetic resonance (CMR) imaging was performed. Subsequently, the LAD was occluded at the exact same site as during infarct induction. After verification of complete vessel occlusion, Evans Blue (E2129, Sigma-Aldrich, St. Louis, MO, USA) solution was infused in the left and right coronary arteries in order to assess the area at risk (AAR). Animals were sacrificed by exsanguination under anesthesia. The heart was excised, cut into 5 slices, and incubated in 1% 2,3,5-triphenyltetrazolium chloride (TTC) (1.08380, Sigma-Aldrich, St. Louis, MO, USA) in 37 degrees 0.9% NaCl for 15 min to discriminate between infarct tissue and viable myocardium. Each slice was photographed at the basal and apical side with a ruler and analyzed with ImageJ software (NIH, Bethesda, MD, USA)."}, "NLRP3-inflammasome [4]": {"system": "NLRP3-inflammasome", "test": "Ex vivo stimulation assay of whole blood after in vivo IZD334 infusion, IL-1β release", "set-up": "species or system pigs", "details": "whole blood taken 60 min after in vivo infusion of 10 mg/kg, LPS + ATP; before infusion 11856 ± 1969 ng/mL, p < 0.001", "description": "To more specifically determine in vivo target engagement, whole blood was obtained at baseline (prior to IZD334 infusion) and 60 min after in vivo IZD334 infusion (10 mg/kg). These samples were then stimulated with LPS and ATP in a similar fashion as in the previously described experiments. IL-1β release was measured in the supernatant with a Luminex Immunoassay specific for porcine IL-1β (ProcartaTM Simplex, eBioscience, San Diego, CA, USA)."}, "NLRP3-inflammasome [5]": {"system": "NLRP3-inflammasome", "test": "In vitro stimulation of porcine whole blood with LPS and ATP, IL-1β release", "format": "cell-based", "description": "(§2) To confirm the ability of IZD334 to effectively attenuate porcine NLRP3-inflammasome signaling, we used a previously standardized study protocol. In short, porcine peripheral blood mononuclear cells (PBMCs) were isolated from healthy porcine animals. Whole blood samples and isolated PBMCs were stimulated with lipopolysaccharide (LPS) (1 µg/mL, L4516, Sigma-Aldrich, St. Louis, MO, USA) and increasing concentrations of IZD334. After three h of incubation, 5 mM adenosine triphosphate (ATP) (A1852, Sigma-Aldrich, St. Louis, MO, USA) was added for 1 h to induce inflammasome activation. IL-1β release was measured in the supernatant with a Luminex Immunoasssay specific for porcine IL-1β (EPX01A-66048-901, ProcartaTM Simplex, eBioscience, ThermoFisher, San Diego, CA, USA).\nIn short, porcine peripheral blood mononuclear cells (PBMCs) were isolated from healthy porcine animals using Ficoll density-gradient centrifugation. Whole blood samples and isolated PBMCs were stimulated with lipopolysaccharide (LPS) (1 µg/mL, L4516, Sigma-Aldrich, St. Louis, MO, USA) and increasing concentrations of IZD334 (top concentration of 10 µM with an 8-point half-log dilution). After three h of incubation, 5 mM adenosine triphosphate (ATP) (A1852, Sigma-Aldrich, St. Louis, MO, USA) was added for 1 h to induce inflammasome activation. IL-1β release was measured in the supernatant with a Luminex Immunoasssay specific for porcine IL-1β (ProcartaTM Simplex, eBioscience, San Diego, CA, USA)."}, "NLRP3-inflammasome [6]": {"system": "NLRP3-inflammasome", "test": "In vitro stimulation of porcine PBMCs with LPS and ATP, IL-1β release", "format": "cell-based", "details": "porcine PBMCs and whole blood, LPS 1 µg/mL 3 h, then 5 mM ATP 1 h", "description": "as §2\nIn short, porcine peripheral blood mononuclear cells (PBMCs) were isolated from healthy porcine animals using Ficoll density-gradient centrifugation. Whole blood samples and isolated PBMCs were stimulated with lipopolysaccharide (LPS) (1 µg/mL, L4516, Sigma-Aldrich, St. Louis, MO, USA) and increasing concentrations of IZD334 (top concentration of 10 µM with an 8-point half-log dilution). […] IL-1β release was measured in the supernatant with a Luminex Immunoasssay specific for porcine IL-1β (ProcartaTM Simplex, eBioscience, San Diego, CA, USA)."}, "[7]": {"system": "pig model of myocardial infarction", "test": "In vivo MI study: cardiac volumes and function by cardiac magnetic resonance", "set-up": "species or system pigs", "details": "CMR, 10 mg/kg IV loading dose, 7 days after MI", "description": "as §1\nAnimals were placed on the CMR table in a supine position, under continuous sedation as described above. Steady-state free precession (SSFP) short axis images from the left ventricle (LV) base through the LV apex were used for the quantification of LV volumes, ejection fraction (EF), and mass. Imaging was performed using a respiratory-corrected, cardiac-gated SSFP in sequence. CMR images were anonymized and analyzed offline using MedisSuite (Medis Medical Imaging Systems, version 3.1, Leiden, The Netherlands)."}, "[8]": {"details": "healthy pigs n = 3, PO 10 mg/kg"}, "[9]": {"details": "then 1 mg/kg oral once daily, n = 6"}, "[10]": {"details": "then 3 mg/kg oral once daily, n = 6"}, "[11]": {"details": "then 3 mg/kg oral once daily, n = 7"}, "[12]": {"details": "then 10 mg/kg oral once daily, n = 7"}},
  "note": "pIC50: −log10 of the molar value. Values joined by “and” are separate entries in the source; they are usually repeats but may differ in a detail not shown here. Identical values can stand only once.",
  "data": [
    {"smiles": "CCN1CCC(S(=O)(=O)[N-]C(=O)Nc2c3c(cc4c2CCC4)CCC3)CC1.[K+]", "note": "[IZD334]", "values": [
      {"measurement": "Fractional area changes at mitral, mid-ventricular, and apical levels versus placebo", "setting": "[1]; data not shown", "result": "equal between groups"},
      {"measurement": "Septal and inferolateral systolic wall thickness and thickening versus placebo", "setting": "[1]; mid-ventricular level", "result": "did not differ between these groups"},
      {"measurement": "AUC0-inf (ng.h/mL)", "setting": "[2]; healthy pigs n = 3, IV 3 mg/kg", "result": "27,786 ng.h/mL"},
      {"measurement": "Cl", "setting": "[2]; healthy pigs n = 3, IV 3 mg/kg", "result": 1.8, "unit": "mL/min/kg"},
      {"measurement": "MRT0-inf", "setting": "[2]; healthy pigs n = 3, IV 3 mg/kg", "result": 5.3, "unit": "h"},
      {"measurement": "Vdss", "setting": "[2]; healthy pigs n = 3, IV 3 mg/kg", "result": 0.58, "unit": "L/kg"},
      {"measurement": "T1/2", "setting": "[2]; healthy pigs n = 3, IV 3 mg/kg, 30 min infusion", "result": 3.9, "unit": "h"},
      {"measurement": "AUC0-inf (ng.h/mL)", "setting": "[2]; [8]", "result": "86,337 ng.h/mL"},
      {"measurement": "Cmax (ng/mL)", "setting": "[2]; [8]", "result": "12,116 ng/mL"},
      {"measurement": "F% (bioavailability)", "setting": "[2]; healthy pigs n = 3, PO 10 mg/kg versus IV 3 mg/kg", "result": 93, "unit": "%"},
      {"measurement": "time that plasma concentrations sufficient for effective inhibition were maintained", "setting": "[2]; healthy pigs, IV 3 mg/kg, based on extrapolation of in vitro results", "result": 24, "unit": "h"},
      {"measurement": "circulating levels 24 h after compound administration", "setting": "[2]; healthy pigs, PO 10 mg/kg", "result": "adequate circulating levels"},
      {"measurement": "AAR/LV ± SD", "setting": "[3]; [9]", "result": "23.5 ± 3.2", "unit": "%"},
      {"measurement": "IS/AAR ± SD", "setting": "[3]; [9]", "result": "75.5 ± 7.3% and 75.5%"},
      {"measurement": "IS/LV ± SD", "setting": "[3]; [9]", "result": "17.7 ± 6.3", "unit": "%"},
      {"measurement": "AAR/LV ± SD", "setting": "[3]; [10]", "result": "26.0 ± 1.9", "unit": "%"},
      {"measurement": "IS/AAR ± SD", "setting": "[3]; [10]", "result": "80.3 ± 3.9", "unit": "%"},
      {"measurement": "IS/LV ± SD", "setting": "[3]; [11]", "result": "20.5 ± 2.2", "unit": "%"},
      {"measurement": "AAR/LV ± SD", "setting": "[3]; [12]", "result": "26.4 ± 6.6", "unit": "%"},
      {"measurement": "IS/AAR ± SD", "setting": "[3]; [12]", "result": "78.2 ± 8.0% and 78.2%"},
      {"measurement": "IS/LV ± SD", "setting": "[3]; [12]", "result": "19.3 ± 2.9", "unit": "%"},
      {"measurement": "IL-1β release after ex vivo stimulation", "setting": "NLRP3-inflammasome [4]", "result": 3968, "unit": "ng/mL"},
      {"measurement": "performance in whole blood assay compared with MCC950", "setting": "NLRP3-inflammasome [5]; porcine whole blood assay", "result": "performs as well as MCC950"},
      {"measurement": "pIC50", "setting": "NLRP3-inflammasome [5]; porcine whole blood, LPS 1 µg/mL 3 h, then 5 mM ATP 1 h, read-out: half maximal inhibitory concentration (IC50), IL-1β release", "result": 6.46},
      {"measurement": "LogIC50, whole blood stimulation", "setting": "NLRP3-inflammasome [5]; porcine whole blood, LPS + ATP, basis of log not printed (fits nM)", "result": 2.545},
      {"measurement": "IL-1β release", "setting": "NLRP3-inflammasome [6]", "result": "dose-dependently reduced IL-1β release"},
      {"measurement": "EDV", "setting": "[7]; [9]", "result": "150 ± 26 mL and 149.6 ± 26.2 mL"},
      {"measurement": "EF%", "setting": "[7]; [9]", "result": "49.9 ± 6.1", "unit": "%"},
      {"measurement": "ESV", "setting": "[7]; [9]", "result": "72 ± 19 mL and 71.5 ± 18.7 mL"},
      {"measurement": "EDV", "setting": "[7]; [11]", "result": "151 ± 8 mL and 151.4 ± 7.6 mL"},
      {"measurement": "EF%", "setting": "[7]; [11]", "result": "42.7 ± 3.8", "unit": "%"},
      {"measurement": "ESV", "setting": "[7]; [11]", "result": "87 ± 8 mL and 86.8 ± 8.2 mL"},
      {"measurement": "EDV", "setting": "[7]; [12]", "result": "144 ± 22 mL and 144.0 ± 22.0 mL"},
      {"measurement": "EF%", "setting": "[7]; [12]", "result": "44.9 ± 6.4", "unit": "%"},
      {"measurement": "ESV", "setting": "[7]; [12]", "result": "80 ± 19 mL and 80.0 ± 18.9 mL"}
    ]}
  ]
}
